Test results as given in patent publication US20040009196A1, “Use of dhea and some of its derivatives in a cosmetic composition for preventing or treating dermal atrophy” (priority 2000, published 2004).

Assays:
[1] = test system: skin equivalent sold by the company EPISKIN; test: Epidermal differentiation in reconstructed epidermis: transglutaminase and filaggrin immunofluorescence, histological analysis; type: cell-based; conditions: 2 μl of DHEA at 1×10^−4 M in ethanol, topical, every 48 hours for 6 days
[2] = test system: skin equivalent sold by the company EPISKIN; test: Topical DHEA on reconstructed epidermis: epidermal lipid analysis by HPTLC with [14C]acetate labelling; type: cell-based; conditions: 2 μl of DHEA at 1×10^−4 M in ethanol, every 48 hours for 6 days, vs ethanol control
Procedure: In this example, 2 μl of DHEA at 1×10^−4 M in ethanol were applied every 48 hours, for 6 days, to a skin equivalent sold by the company EPISKIN (LYON, France), after culturing it for 7 days and incubating overnight with [^14C]acetate (2 μCi/ml). The culture and test media are those contained in the kit sold by the supplier. The control consists of an identical epidermal equivalent undergoing a topical application of 2 μl of ethanol diluted 1/1 000.
At the end of the incubation, the epidermal equivalent is detached from its collagenic support. The preparation of the lipids of the epidermal equivalent, and their analysis by HPTLC or high performance thin-layer chromatography, are carried out according to the technique and with the buffers described by M. Ponec (1991, Adv. Lipid Res., 24: 83-117). At the end of the migration of the lipids, autoradiography of the chromatography plate is carried out overnight.

C[C@]12CC[C@H](O)CC1=CC[C@@H]1[C@@H]2CC[C@]2(C)C(=O)CC[C@@H]12 [DHEA, dehydroepiandrosterone]
histological analysis: number of granular layers or parakeratosis [1]: no increase in the number of granular layers or in parakeratosis
modification in epidermal differentiation (expression of transglutaminase and of filaggrin, immunofluorescence labelling) [1]: no modification in epidermal differentiation
increase in the epidermal content of phospholipids compared with the control [2]: 35%
